Data as given in patent US20240228390A1, “Chelated Nutrients and Methods of Use Thereof” (ICL AMERICA DO SUL S.A., priority 2021, published 2024).

Assay: Stability testing at different pH levels
Format: physicochemical
Details: Chelate A (glutamic acid + malic acid)
Protocol: Stability testing at different PH levels was performed and turning to Table 1, there is a large range of the chelates' stability, wherein the structure of the chelates can be considered stable.

[Zn(Glu)(Mal)]2Na [Chelate A Zn^2+]
Stability pH of the chelates, Acid medium (acid limit of stable pH range): 0.20
Stability pH of the chelates, Alkaline medium (alkaline limit of stable pH range): 11.30
